The nature of data set [1]: Predicted hepatic clearance from hepatic microsomes (rat). It is filed as in vitro ADME. The procedure: Intrinsic clearance: Human or rat hepatic microsomes (0.5 mg/mL) and 1 µM test compound were incubated in 100 mM potassium phosphate pH 7.4 buffer with 3 mM MgCl2 at 37°C with constant shaking.
After a 5 min preincubation, the reaction was initiated by addition of NADPH (1 mM). At selected time intervals (0, 3, 7, 15, 25, and 45 min), aliquots were taken and subsequently placed into a 96-well plate containing cold acetonitrile with internal standard (50 ng/mL carbamazepine). Plates were then centrifuged at 3000 rcf (4° C) for 10 min, and the supernatant was transferred to a separate 96-well plate and diluted 1:1 with water for LC/MS/MS analysis. The in vitro half-life (T 1/2, min, Eq. 1), intrinsic clearance (CLint, mL/min/kg, Eq. 2) and subsequent predicted hepatic clearance (CLhep, mL/min/kg, Eq. 3) was determined […]
employing the following equations: […]
where k represents the slope from linear regression analysis of the natural log percent remaining of test compound as a function of incubation time
0.693 mL incubation 45 mg microsomes 20a gram liver
(2) CLint = in vitroT x mg microsomes x gram liver x kg body wt […]
ascale-up factors: of 20 (human) or 45 (rat) […]
where Qh (hepatic blood flow, mL/min/kg) is 21 (human) or 70 (rat).
LC/MS/MS Bioanalysis of Samples from Plasma Protein Binding and Intrinsic Clearance Assays. Samples were analyzed on a Thermo Electron TSQ Quantum Ultra triple quad mass spectrometer (San Jose, CA) via electrospray ionization (ESI) with two Themo Electron Accella pumps (San Jose, CA), and a Leap Technologies CTC PAL autosampler (Carrboro, NC). Analytes were separated by gradient elution on a dual column system with two Thermo Hypersil Gold (2.1 x 30 mm, 1.9 µm) columns (San Jose, CA) thermostated at 40°C. HPLC mobile phase A was 0.1% formic acid in water and mobile phase B was 0.1% formic acid in acetonitrile. The gradient […]
95% B for 0.2 min; returned to 10% B in 0.1 min. The total run time was 1.3 min and the HPLC flow rate was 0.8 mL/min. While pump 1 ran the gradient method, pump 2 equilibrated the alternate column isocratically at 10% B. Compound optimization, data collection and […]

The target of a further data set is T1, CYP450 3A4 (Homo sapiens, UniProt P08684).
T1 construct: 0.1 mg/mL human liver microsomes (HLM); from tissue; host or cells: human liver microsomes
T1 sequence (P08684 whole entry): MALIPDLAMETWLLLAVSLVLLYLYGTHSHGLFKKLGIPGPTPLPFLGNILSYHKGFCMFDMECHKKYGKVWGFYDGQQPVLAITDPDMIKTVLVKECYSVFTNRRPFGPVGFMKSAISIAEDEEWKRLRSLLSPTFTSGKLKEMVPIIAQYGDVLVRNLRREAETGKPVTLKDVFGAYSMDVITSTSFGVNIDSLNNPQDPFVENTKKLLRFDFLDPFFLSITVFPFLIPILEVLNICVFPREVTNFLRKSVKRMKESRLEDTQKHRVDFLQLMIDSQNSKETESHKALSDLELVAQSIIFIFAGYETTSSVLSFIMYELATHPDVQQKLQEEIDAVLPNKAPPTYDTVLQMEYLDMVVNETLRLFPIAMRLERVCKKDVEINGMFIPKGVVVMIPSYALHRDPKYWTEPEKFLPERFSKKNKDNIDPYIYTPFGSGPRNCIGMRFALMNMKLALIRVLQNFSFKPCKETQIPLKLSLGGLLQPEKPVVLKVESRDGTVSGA
The data set is described as follows: Inhibition of cytochrome P450 enzymes in human liver microsomes, 3A4. Format: in vitro ADME. The procedure: Inhibition of Cytochrome P450 Enzymes: A cocktail of substrates for cytochrome P450 enzymes (1A2: Phenacetin, 10 µM; 2C9: Diclofenac, 5 µM; 2D6: Dextromethorphan, 5 µM; 3A4:
Midazolam, 2 µM) were mixed for cocktail analysis. For P450 2C19, the substrate stock (Mephenytoin, 40 µM )and substrate mix were prepared separately for discrete analysis. The […]
positive control for pan-P450 inhibition (miconazole) was included alongside each test compound […]
A reaction mixture of 100 mM Kpi, pH 7.4, 0.1 mg/mL human liver microsomes (HLM) and Substrate Mix is prepared and aliquoted into a 96-deepwell block. Test compound and positive control (in duplicate) were then added such that the final concentration of test compound ranged from 0.1 – 30 µM. The plate was vortexed briefly and then pre-incubated at 37 °C while shaking for 15 minutes. The reaction was initiated with the addition of NADPH (1 mM final concentration). The incubation continued for 8 min and the reaction quenched by 2x volume of cold acetonitrile containing internal standard (50 nM carbamazepine). The plate was centrifuged for 10 minutes (4000 rcf, 4°C) and the resulting supernatant diluted 1:1 with water for LC/MS/MS analysis. A 12 point standard curve of substrate metabolites over the range of 0.98 nM to 2000 […]
Samples were analyzed via electrospray ionization (ESI) on an AB Sciex API-4000 (Foster City, CA) triple-quadrupole instrument that was coupled with Shimadzu LC-10AD pumps (Columbia, MD) and a Leap Technologies CTC PAL auto-sampler (Carrboro, NC). Analytes were separated by gradient elution using a Fortis C18 3.0 x 50 mm, 3 µm column (Fortis Technologies Ltd, Cheshire, UK) thermostated at 40°C. HPLC mobile phase A was 0.1% formic acid in water (pH unadjusted), mobile phase B was 0.1% formic acid in acetonitrile (pH unadjusted). The gradient […]
90% B for 0.1 min and returned to 10% B in 0.1 min followed by a re-equilibration (0.9 min). The total run time was 2.5 min and the HPLC flow rate was 0.5 mL/min. The source temperature was set at 500°C and mass spectral analyses were performed using multiple reaction monitoring (MRM), with transitions specific for each compound utilizing a Turbo-Ionspray® source in positive ionization mode (5.0 kV spray voltage).
The IC50 values for each compound were obtained for the individual CYP enzymes by quantitating the inhibition of metabolite formation for each probe substrate. A 0 µM compound condition (or control) was set to 100% enzymatic activity and the effect of increasing test compound concentrations on enzymatic activity could then be calculated from the % of control activity.
Curves were fitted using XLfit 5.2.2 (four-parameter logistic model, equation 201) to determine the concentration that produces half-maximal inhibition (IC50).
(In general: Liver microsomes are a subcellular fraction often used to study metabolism.)

With `Cn1cc(-c2cc(CNC(=O)c3cc(-c4ccco4)ccc3Cl)n(C)n2)cn1` [compound 4], the “Predicted CLhep (r)” value in data set [1] is reported as 34.2 mL/min/kg. The IC50 (commonly the point on the concentration scale where inhibition reaches its midpoint) at CYP450 3A4 was > 30 µM.

For the compound `Cn1nc(-c2ccnn2C)cc1CNC(=O)c1cc(-n2cccn2)ccc1Cl` [compound 5], the “Predicted CLhep (r)” value in data set [1] was 21.4 mL/min/kg. Moreover, the 50% inhibitory concentration (IC50) on CYP450 3A4 was > 30 µM.

As to `Cc1nc2ccccc2cc1CNC(=O)c1cc(-n2cccn2)ccc1Cl` [compound 6], the “Predicted CLhep (r)” value in data set [1] is 47.8 mL/min/kg. The compound also yielded an IC50 against CYP450 3A4 of 8.8 µM.

With `Cc1nc2c(F)cccc2cc1CNC(=O)c1cc(-n2cccn2)ccc1Cl` [compound 7], the “Predicted CLhep (r)” value in data set [1] is on record as 46.8 mL/min/kg. For the same compound, the IC50 against CYP450 3A4 came to 9 µM.

For the compound `Cc1nc(C2CC2)ccc1CNC(=O)c1cc(-n2cccn2)ccc1Cl` [compound 8], the “Predicted CLhep (r)” value in data set [1] is 46.7 mL/min/kg. The compound further returned an IC50 against CYP450 3A4 of 23.8 µM.

The record behind these values is paper PMC11843613, “Further Optimization of the mGlu1 PAM VU6024578/BI02982816: Discovery and Characterization of VU6033685” (ACS Chemical Neuroscience, 2025).
